# The source made the active and inactive calls. No cut-off for these calls is given here.
# Tests used:
# [1] = target: T1, Proprotein convertase subtilisin/kexin type 9 (Homo sapiens, UniProt Q8NBP7); experiment: Inhibition of human PCSK9 using Alexa Fluor […] as substrate incubated for 2 hrs by FRET assay
# [2] = target: T1, Proprotein convertase subtilisin/kexin type 9; experiment: Inhibition of human PCSK9 using Alexa Fluor […] as substrate incubated for 2 hrs by FRET plus assay
# [3] = AUC(0 to infinity) in Wistar Han rat at 1 mg/kg, iv measured upto 24 hrs by LC-MS/MS analysis; format: ADME, organism-based; design: route intravenous, dose 1 mg/kg, time <=24; conditions: in vivo
# [4] = Clearance in Wistar Han rat at 1 mg/kg, iv measured upto 24 hrs by LC-MS/MS analysis; format: ADME, organism-based; conditions: in vivo
# [5] = Volume of distribution at steady state in Wistar Han rat at 1 mg/kg, iv measured upto 24 hrs by LC-MS/MS analysis; format: ADME, organism-based; conditions: in vivo, read-out: Vdss
# [6] = Half life in Wistar Han rat at 1 mg/kg, iv measured upto 24 hrs by LC-MS/MS analysis; format: ADME, organism-based; conditions: in vivo
# [7] = Protein binding in Wistar Han rat at 1 mg/kg, iv measured upto 24 hrs by LC-MS/MS analysis; format: ADME, organism-based; conditions: in vivo, read-out: PB (converted)
# [8] = Unbound clearance in Wistar Han rat at 1 mg/kg, iv measured upto 24 hrs by LC-MS/MS analysis; format: ADME, organism-based; conditions: in vivo
# [9] = AUC(0 to infinity) in cynomolgus monkey at 1 mg/kg, iv measured upto 72 hrs by LC-MS/MS analysis; format: ADME, organism-based, Macaca fascicularis; design: route intravenous, dose 1 mg/kg, time <=72; conditions: in vivo
# [10] = Clearance in cynomolgus monkey at 1 mg/kg, iv measured upto 72 hrs by LC-MS/MS analysis; format: ADME, organism-based, Macaca fascicularis; conditions: in vivo
# [11] = Volume of distribution at steady state in cynomolgus monkey at 1 mg/kg, iv measured upto 72 hrs by LC-MS/MS analysis; format: ADME, organism-based, Macaca fascicularis; conditions: in vivo, read-out: Vdss
# [12] = Half life in cynomolgus monkey at 1 mg/kg, iv measured upto 72 hrs by LC-MS/MS analysis; format: ADME, organism-based, Macaca fascicularis; conditions: in vivo
# [13] = Protein binding in cynomolgus monkey at 1 mg/kg, iv measured upto 72 hrs by LC-MS/MS analysis; format: ADME, organism-based, Macaca fascicularis; conditions: in vivo, read-out: PB (converted)
# [14] = Unbound clearance in cynomolgus monkey at 1 mg/kg, iv measured upto 72 hrs by LC-MS/MS analysis; format: ADME, organism-based, Macaca fascicularis; conditions: in vivo
# [15] = AUC(0 to infinity) in OATP knock out Wistar Han rat at 1 mg/kg, iv measured upto 24 hrs by LC-MS/MS analysis; format: ADME, organism-based; design: route intravenous, dose 1 mg/kg, time <=24; conditions: in vivo
# [16] = Clearance in OATP knock out Wistar Han rat at 1 mg/kg, iv measured upto 24 hrs by LC-MS/MS analysis; format: ADME, organism-based; conditions: in vivo
# [17] = Volume of distribution at steady state in OATP knock out Wistar Han rat at 1 mg/kg, iv measured upto 24 hrs by LC-MS/MS analysis; format: ADME, organism-based; conditions: in vivo, read-out: Vdss
# [18] = Half life in OATP knock out Wistar Han rat at 1 mg/kg, iv measured upto 24 hrs by LC-MS/MS analysis; format: ADME, organism-based; conditions: in vivo
# [19] = Protein binding in OATP knock out Wistar Han rat; format: ADME; conditions: read-out: PB
# [20] = target: T2, Solute carrier organic anion transporter family member 1B1 (Homo sapiens, UniProt Q9Y6L6); experiment: Inhibition of OATP1B1 (unknown origin) expressed in HEK293 cells assessed as reduction in OATP 1B1-mediated [3H]-pitavastatin uptake preincubated for 30 mins followed by [3H]-pitavastatin addition and measured after 2 mins by liquid scintillation analysis; format: cell-based
# T2 sequence (Q9Y6L6 whole entry): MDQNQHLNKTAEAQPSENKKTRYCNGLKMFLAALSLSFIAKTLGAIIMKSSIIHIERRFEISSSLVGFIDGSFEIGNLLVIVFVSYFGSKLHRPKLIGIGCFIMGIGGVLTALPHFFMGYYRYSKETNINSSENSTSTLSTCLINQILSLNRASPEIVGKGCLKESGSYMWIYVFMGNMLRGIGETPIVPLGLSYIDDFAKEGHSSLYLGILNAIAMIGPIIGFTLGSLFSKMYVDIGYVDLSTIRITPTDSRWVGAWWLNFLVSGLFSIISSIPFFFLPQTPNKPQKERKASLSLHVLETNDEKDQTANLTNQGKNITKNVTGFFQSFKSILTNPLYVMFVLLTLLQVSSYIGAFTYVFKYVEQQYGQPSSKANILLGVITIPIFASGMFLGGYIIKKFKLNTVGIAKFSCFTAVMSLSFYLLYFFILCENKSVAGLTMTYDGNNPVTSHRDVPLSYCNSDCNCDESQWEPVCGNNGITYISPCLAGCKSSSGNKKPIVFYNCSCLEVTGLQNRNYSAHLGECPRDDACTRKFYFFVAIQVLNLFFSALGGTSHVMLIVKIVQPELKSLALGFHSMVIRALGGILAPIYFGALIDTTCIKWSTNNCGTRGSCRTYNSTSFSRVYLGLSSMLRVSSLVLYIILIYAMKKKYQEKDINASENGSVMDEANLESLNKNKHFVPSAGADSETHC
# [21] = Unbound clearance in OATP knock out Wistar Han rat at 1 mg/kg, iv measured upto 24 hrs by LC-MS/MS analysis; format: ADME, organism-based; conditions: in vivo
# Mast cell = experiment: Induction of rat mast cells degranulation activity at 100 uM incubated for 30 mins; format: functional, tissue-based
# Sus scrofa [22] = species on record: Sus scrofa; experiment: Stability of the compound assessed as porcine pancreatic elastase-mediated parent compound depletion by measuring parent compound remaining after 1 hr by LC-MS/MS analysis
# [23] = AUC extrapolated in Wistar Han rat at 5 mg/kg, id measured upto 24 hrs by LC-MS/MS analysis; format: ADME, organism-based; conditions: in vivo, other
# [24] = AUC(0 to infinity) in Wistar Han rat at 5 mg/kg, id measured upto 24 hrs by LC-MS/MS analysis; format: ADME, organism-based; design: dose 5 mg/kg, time <=24; conditions: in vivo
# [25] = target: T1, Proprotein convertase subtilisin/kexin type 9; experiment: Inhibition of human PCSK9 using Alexa Fluor […] as substrate incubated for 2 hrs by FRET ultra assay
# Bos taurus = species on record: Bos taurus; experiment: Stability of the compound assessed as bovine pancreas alpha chymotrypsin-mediated parent compound depletion by measuring parent compound remaining after 1 hr by LC-MS/MS analysis
# Sus scrofa [26] = species on record: Sus scrofa; experiment: Stability of the compound assessed as porcine pepsin-mediated parent compound depletion by measuring parent compound remaining after 1 hr by LC-MS/MS analysis
# [27] = Stability of the compound assessed as bovine pancreatic trypsin-mediated parent compound depletion by measuring parent compound remaining after 1 hr by LC-MS/MS analysis; format: ADME, Bos taurus; conditions: cattle, read-out: Stability
# [28] = Cmax in Wistar Han rat at 5 mg/kg, id measured upto 24 hrs by LC-MS/MS analysis; format: ADME, organism-based; design: dose 5 mg/kg, time <=24; conditions: in vivo
# [29] = Tmax in Wistar Han rat at 5 mg/kg, id measured upto 24 hrs by LC-MS/MS analysis; format: ADME, organism-based; conditions: in vivo
# [30] = Bioavailability in Wistar Han rat at 5 mg/kg, id measured upto 24 hrs by LC-MS/MS analysis; format: ADME, organism-based; conditions: in vivo
# T1 sequence (Q8NBP7 31-152 limits assumed): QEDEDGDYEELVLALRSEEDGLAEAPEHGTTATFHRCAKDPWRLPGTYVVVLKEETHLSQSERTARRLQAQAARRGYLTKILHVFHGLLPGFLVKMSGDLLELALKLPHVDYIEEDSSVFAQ
# T1 sequence (Q8NBP7 153-692 limits assumed): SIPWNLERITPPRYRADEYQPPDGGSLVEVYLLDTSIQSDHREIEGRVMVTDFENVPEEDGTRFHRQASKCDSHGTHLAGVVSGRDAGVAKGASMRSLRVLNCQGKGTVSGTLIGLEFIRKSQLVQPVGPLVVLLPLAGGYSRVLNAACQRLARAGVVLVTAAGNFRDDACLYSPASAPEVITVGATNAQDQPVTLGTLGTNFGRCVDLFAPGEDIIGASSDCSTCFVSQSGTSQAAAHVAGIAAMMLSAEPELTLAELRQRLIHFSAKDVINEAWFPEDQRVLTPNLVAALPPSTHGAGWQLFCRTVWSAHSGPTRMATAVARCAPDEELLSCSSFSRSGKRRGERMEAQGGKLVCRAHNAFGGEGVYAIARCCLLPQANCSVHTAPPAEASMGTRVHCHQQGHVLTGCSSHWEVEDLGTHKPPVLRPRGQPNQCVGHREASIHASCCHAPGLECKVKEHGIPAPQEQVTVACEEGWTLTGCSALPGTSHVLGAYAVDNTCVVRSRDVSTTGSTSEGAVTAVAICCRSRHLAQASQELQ
Ki [1] [nM],Ki [2] [nM],AUC(0-inf) [3] [µM·h],clearance [4] [mL/min/kg],Vd [5] [L/kg],half-life [6] [h],fraction unbound at 24 h [7],CL free [8] [mL/min/kg],EC50 [20] [nM],%AUCextra [23] [%],AUC(0-inf) [24] [µM·h],Ki [25] [nM],Cmax [28] [nM],Tmax [29] [h],bioavailability [30] [%],Structure (SMILES),Activity (Mast cell),further results
0.48,0.39,0.442,28.7,0.8,2.1,0.01,> 3000,130,–,–,–,–,–,–,COc1ccc(C[C@@H]2NC(=O)[C@H]([C@@H](C)OC)NC(=O)[C@@H]3[C@@H]4CCN3C(=O)[C@H](Cc3c[nH]c5ccc(F)cc35)NC(=O)[C@H](Cc3cccc(c3)C/C=C/CO4)NC(=O)[C@@H](C)NC(=O)[C@H](C)NC(=O)CCSCc3cccc(c3)CSCCNC(=O)[C@]3(C)CCCN3C2=O)cc1,inactive,AUC(0-inf) [9]: 0.648 µM·h; clearance [10]: 19.6 mL/min/kg; Vd [11]: 2.1 L/kg; half-life [12]: 3.4 h; fraction unbound at 72 h [13]: 0.024; CL free [14]: 576 mL/min/kg; AUC(0-inf) [15]: 2.92 µM·h; clearance [16]: 4.4 mL/min/kg; Vd [17]: 0.9 L/kg; half-life [18]: 3.9 h; fraction unbound [19]: 0.01; CL free [21]: 453 mL/min/kg
< 0.129,0.00826,0.964,12.3,3,5.9,0.144,85,600,23.6,0.0215,0.0094,12.4,0.25,0.45,COc1ccc(C[C@@H]2NC(=O)[C@H]([C@@H](C)O)NC(=O)[C@@H]3[C@@H]4CCN3C(=O)[C@@H]3Cc5cn(c6ccc(F)cc56)Cc5cn(nn5)-c5cc(cc(c5)CSCCC(=O)N[C@@H](CN)C(=O)N[C@H](C)C(=O)N[C@@H](Cc5cccc(c5)C/C=C/CO4)C(=O)N3)CSCCNC(=O)[C@]3(C)CCCN3C2=O)cc1,inactive,Stability (Sus scrofa [22]): 96.5%; Stability (Bos taurus): 90%; Stability (Sus scrofa [26]): 100%; remaining at 1 h [27]: 100%
< 0.129,–,–,–,–,–,–,–,6000,19.6,0.0683,0.00813,53.3,0,1,COc1ccc(C[C@@H]2NC(=O)[C@H]([C@@H](C)O)NC(=O)[C@@H]3[C@@H]4CCN3C(=O)[C@@H]3Cc5cn(c6ccc(F)cc56)Cc5cn(nn5)-c5cc(cc(c5)CSCCC(=O)N[C@@H](CNC(=O)CCOCCOCCN)C(=O)N[C@H](C)C(=O)N[C@@H](Cc5cccc(c5)C/C=C/CO4)C(=O)N3)CSCCNC(=O)[C@]3(C)CCCN3C2=O)cc1,inactive,–
